System: 156681-154-R-J1 tumor spheroid viability
Experiment: Anticancer human tumor 156681-154-R-J1 patient-derived melanoma cell line growth inhibition
Conditions: spheroids with HUVEC and MSC; for IC50: curve of first compound; for viability, T/C: stronger effect = lower value
In short: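 Complex tumor spheroids combined malignant cells with endothelial cells and mesenchymal stem cells. DNA-damaging drugs and DNA repair inhibitors were tested alone and in combination, at half-log dilutions down from clinical Cmax (top 10 microM if Cmax unknown), 0.25% DMSO final.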

[1] = second compound 30 pM, first compound 0.00949 µM
[2] = second compound 30 pM, first compound 0.03 µM
[3] = second compound 30 pM, first compound 0.0949 µM
[4] = second compound 30 pM, first compound 0.3 µM
[5] = second compound 30 pM, first compound 0.949 µM
[6] = second compound 30 pM, first compound 3 µM
[7] = second compound 94.9 pM, first compound 0.00949 µM
[8] = second compound 94.9 pM, first compound 0.03 µM
[9] = second compound 94.9 pM, first compound 0.0949 µM
[10] = second compound 94.9 pM, first compound 0.3 µM
[11] = second compound 94.9 pM, first compound 0.949 µM
[12] = second compound 94.9 pM, first compound 3 µM
[13] = second compound 0.0003 µM, first compound 0.00949 µM
[14] = second compound 0.0003 µM, first compound 0.03 µM
[15] = second compound 0.0003 µM, first compound 0.0949 µM
[16] = second compound 0.0003 µM, first compound 0.3 µM
[17] = second compound 0.0003 µM, first compound 0.949 µM
[18] = second compound 0.0003 µM, first compound 3 µM
[19] = second compound 0.000949 µM, first compound 0.00949 µM
[20] = second compound 0.000949 µM, first compound 0.03 µM
[21] = second compound 0.000949 µM, first compound 0.0949 µM
[22] = second compound 0.000949 µM, first compound 0.3 µM
[23] = second compound 0.000949 µM, first compound 0.949 µM
[24] = second compound 0.000949 µM, first compound 3 µM
[25] = second compound 0.003 µM, first compound 0.00949 µM
[26] = second compound 0.003 µM, first compound 0.03 µM
[27] = second compound 0.003 µM, first compound 0.0949 µM
[28] = second compound 0.003 µM, first compound 0.3 µM
[29] = second compound 0.003 µM, first compound 0.949 µM
[30] = second compound 0.003 µM, first compound 3 µM
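Further: spheroids exposed to compounds for 7 days before readout.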
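Wherever viability, T/C is given: percent of vehicle control viability where 100% = DMSO-treated spheroids.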

Compound	IC50 (second compound 30 pM)	IC50 (second compound 94.9 pM)	IC50 (second compound 0.0003 µM)	IC50 (second compound 0.000949 µM)	IC50 (second compound 0.003 µM)	viability, T/C [3]	viability, T/C [4]	viability, T/C [5]	viability, T/C [6]	viability, T/C [9]	viability, T/C [10]	viability, T/C [11]	viability, T/C [12]	viability, T/C [15]	viability, T/C [16]	viability, T/C [17]	viability, T/C [18]	viability, T/C [21]	viability, T/C [22]	viability, T/C [23]	further results
CNCc1ccc(-c2cc(-c3nc(-c4ccc(S(=O)(=O)C(C)C)cc4)cnc3N)on2)cc1 + COc1cc2c(cc1O)CCNC21CSC2c3c(OC(C)=O)c(C)c4c(c3C(COC1=O)N1C(O)C3Cc5cc(C)c(OC)c(O)c5C(C21)N3C)OCO4	1.12 µM	0.87 µM	0.581 µM	< 0.00949 µM	< 0.00949 µM	99%	85.2%	53.5%	17%	101%	77.1%	49.3%	2.05%	90.4%	69.1%	35.4%	1.71%	4.37%	3.55%	1.04%	viability, T/C [1]: 119%; viability, T/C [2]: 103%; viability, T/C [7]: 112%; viability, T/C [8]: 113%; viability, T/C [13]: 90.6%; viability, T/C [14]: 100%; viability, T/C [19]: 3.5%; viability, T/C [20]: 5.91%; viability, T/C [24]: 0.15%; viability, T/C [25]: 0.16%; viability, T/C [26]: 0.17%; viability, T/C [27]: 0.17%; viability, T/C [28]: 0.12%; viability, T/C [29]: 0.12%; viability, T/C [30]: 0.24%
Cc1sc2c(c1C)C(c1ccc(Cl)cc1)=NC(CC(=O)Nc1ccc(O)cc1)c1nnc(C)n1-2 (stereo not given) + COc1cc2c(cc1O)CCNC21CSC2c3c(OC(C)=O)c(C)c4c(c3C(COC1=O)N1C(O)C3Cc5cc(C)c(OC)c(O)c5C(C21)N3C)OCO4	> 3 µM	2.03 µM	0.197 µM	< 0.00949 µM	< 0.00949 µM	103%	109%	68.3%	61.8%	95.8%	85.5%	82.5%	34.7%	64.9%	45.2%	15.7%	9.14%	2.97%	1.78%	0.17%	viability, T/C [1]: 104%; viability, T/C [2]: 92.1%; viability, T/C [7]: 108%; viability, T/C [8]: 97.1%; viability, T/C [13]: 90.7%; viability, T/C [14]: 76.7%; viability, T/C [19]: 1.73%; viability, T/C [20]: 3.32%; viability, T/C [24]: 0.15%; viability, T/C [25]: 0.14%; viability, T/C [26]: 0.17%; viability, T/C [27]: 0.12%; viability, T/C [28]: 0.12%; viability, T/C [29]: 0.12%; viability, T/C [30]: 0.21%
Cn1ncnc1[C@H]1c2n[nH]c(=O)c3cc(F)cc(c23)N[C@@H]1c1ccc(F)cc1 + COc1cc2c(cc1O)CCNC21CSC2c3c(OC(C)=O)c(C)c4c(c3C(COC1=O)N1C(O)C3Cc5cc(C)c(OC)c(O)c5C(C21)N3C)OCO4	1.44 µM	0.688 µM	0.097 µM	< 0.00949 µM	< 0.00949 µM	97.9%	72.4%	70.9%	19.1%	91.9%	73.3%	40.8%	14%	51%	36.6%	15.2%	11.3%	4.05%	2.68%	1%	viability, T/C [1]: 82%; viability, T/C [2]: 91.7%; viability, T/C [7]: 97.5%; viability, T/C [8]: 80.7%; viability, T/C [13]: 48.5%; viability, T/C [14]: 53.7%; viability, T/C [19]: 10%; viability, T/C [20]: 4.38%; viability, T/C [24]: 0.14%; viability, T/C [25]: 0.15%; viability, T/C [26]: 0.14%; viability, T/C [27]: 0.55%; viability, T/C [28]: 0.12%; viability, T/C [29]: 0.13%; viability, T/C [30]: 0.18%
O=C(c1cc(Cc2n[nH]c(=O)c3ccccc23)ccc1F)N1CCN(C(=O)C2CC2)CC1 + COc1cc2c(cc1O)CCNC21CSC2c3c(OC(C)=O)c(C)c4c(c3C(COC1=O)N1C(O)C3Cc5cc(C)c(OC)c(O)c5C(C21)N3C)OCO4	> 30 µM	> 30 µM	5.84 µM	< 0.0949 µM	< 0.0949 µM	83.5%	77%	73.4%	72.2%	82.1%	85.9%	82.7%	66.3%	69.8%	68.6%	64.1%	66.8%	4.61%	4.05%	3.32%	viability, T/C (second compound 30 pM, first compound 9.49 µM): 65.3%; viability, T/C (second compound 30 pM, first compound 30 µM): 60.1%; viability, T/C (second compound 94.9 pM, first compound 9.49 µM): 69%; viability, T/C (second compound 94.9 pM, first compound 30 µM): 53.5%; viability, T/C (second compound 0.0003 µM, first compound 9.49 µM): 37.8%; viability, T/C (second compound 0.0003 µM, first compound 30 µM): 21.2%; viability, T/C [24]: 4.15%; viability, T/C (second compound 0.000949 µM, first compound 9.49 µM): 0.45%; viability, T/C (second compound 0.000949 µM, first compound 30 µM): 0.13%; viability, T/C [27]: 0.12%; viability, T/C [28]: 0.12%; viability, T/C [29]: 0.1%; viability, T/C [30]: 0.11%; viability, T/C (second compound 0.003 µM, first compound 9.49 µM): 0.11%; viability, T/C (second compound 0.003 µM, first compound 30 µM): 0.17%
